The text below walks through data of patent US20100292255A1, “Therapeutic Compounds and Their Use in Treating Diseases and Disorders” (Myriad Pharmaceuticals, Inc., priority 2007, published 2010).

This assay deals with T1, purified human Hsp90.
T1 construct: purified human Hsp90 (Stressgen, SPP-770)
Kind of assay: Hsp90 binding assay: displacement of BODIPY-labeled geldanamycin measured by fluorescence polarization. The settings on record: BODIPY-GM 10 nM, Hsp90 30 nM, overnight at room temperature; for IC50: read-out: GM displacement from purified Hsp90 measured by FP IC 50; for GM displacement from purified Hsp90 measured by FP Inhibition by 5 μM compd. (%): 5 μM compound. A digest of the protocol:
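Fluorescence polarization measured displacement of BODIPY-geldanamycin (10 nM) from purified human Hsp90 (30 nM). The buffer was HEPES-KOH pH 7.3 with molybdate, NP-40, gamma globulin and DTT, 2% DMSO, overnight at room temperature, ex/em 485/530 nm. % inhibition was calculated against DMSO controls, and points confounded by compound fluorescence were excluded.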

In the case of `COCCC(=O)N1CCC(CCn2c(Sc3cc4c(cc3Br)OCCO4)nc3c(N)ncnc32)CC1` [compound 5, 8-[(7-Bromo-2,3-dihydro-1,4-benzodioxin-6-yl)thio]-9-{2-[1-(3-methoxypropanoyl)piperidin-4-yl]ethyl}-9H-purin-6-amine], the IC50 amounted to 63 nM.

For the compound `Cc1cc(Br)c(Sc2nc3c(N)ncnc3n2CCC2CCN(C(=O)[C@H](C)O)CC2)cc1C` [Example Compound 165, (2S)-1-[4-(2-{6-amino-8-[(2-bromo-4,5-dimethylphenyl)thio]-9H-purin-9-yl}ethyl)piperidin-1-yl]-1-oxopropan-2-ol], the IC50 amounted to 240 nM.

As to `C[C@@H](N)C(=O)N1CCC(Cn2c(Sc3cc4c(cc3Br)OCCO4)nc3c(N)ncnc32)CC1` [compound 124, 9-([1-[(2R)-2-Aminopropanoyl]piperidin-4-yl}methyl)-8-[(7-bromo-2,3-dihydro-1,4-benzodioxin-6-yl)thio]-9H-purin-6-amine], the IC50 was 295 nM. Turning to `Nc1ncnc2c1nc(Sc1cc3c(cc1Br)OCO3)n2CCC1CCN(C2=NC(=O)CC2)CC1` [Example Compound 156, 5-[4-(2-{6-amino-8-[(6-bromo-1,3-benzodioxol-5-yl)thio]-9H-purin-9-yl}ethyl)piperidin-1-yl]-3,4-dihydro-2H-pyrrol-2-one], the IC50 turned out to be 160 nM. The same measure, in the same setting: as for `Nc1ncnc2c1nc(Sc1cc3c(cc1Br)OCC3)n2CCC1CCN(C=O)CC1` [Example Compound 180, 4-(2-{6-Amino-8-[(6-bromo-2,3-dihydro-1-benzofuran-5-yl)thio]-9H-purin-9-yl}ethyl)piperidine-1-carbaldehyde], the figure is 400 nM. In the case of `CO[C@@H](C)C(=O)N1CCC(CCn2cnc(N)c3nc(Sc4cc5c(cc4C#N)OCO5)nc2-3)CC1` [compound 38, 6-{[6-Amino-3-(2-{1-[(2S)-2-methoxypropanoyl]piperidin-4-yl}ethyl)-3H-purin-8-yl]thio}-1,3-benzodioxole-5-carbonitrile], the “GM displacement from purified Hsp90 measured by FP Inhibition by 5 μM compd. (%)” value was determined as 36.0%. Turning to `COCCC(=O)N1CCC(CCn2c(Sc3cc4c(cc3C#N)OCO4)nc3c(N)ncnc32)CC1` [compound 41, 6-[(6-Amino-9-{2-[1-(3-methoxypropanoyl)piperidin-4-yl]ethyl}-9H-purin-8-yl)thio]-1,3-benzodioxole-5-carbonitrile], the IC50 was 480 nM. For `Nc1ncnc2c1nc(Sc1cc3c(cc1Br)OCO3)n2CCC1CCN(CCO)CC1` [Example Compound 149, 2-[4-(2-{6-Amino-8-[(6-bromo-1,3-benzodioxol-5-yl)thio]-9H-purin-9-yl}ethyl)piperidin-1-yl]ethanol], the IC50 is 450 nM. Consider `N#Cc1cc2c(cc1Sc1nc3c(N)ncnc3n1CCC1CCN(C(=O)C3CC3(F)F)CC1)OCO2` (stereo not shown) [compound 39, 6-{[6-Amino-9-(2-{1-[(2,2-difluorocyclopropyl)carbonyl]piperidin-4-yl}ethyl)-9H-purin-8-yl]thio}-1,3-benzodioxole-5-carbonitrile], for which the IC50 was 200 nM. On to `Nc1ncn(CCC2CCN(C=O)CC2)c2nc(Sc3cc4c(cc3[N+](=O)[O-])OCO4)nc1-2` [compound 65, 4-(2-{6-Amino-8-[(6-nitro-1,3-benzodioxol-5-yl)thio]-3H-purin-3-yl}ethyl)piperidine-1-carbaldehyde], for which the “GM displacement from purified Hsp90 measured by FP Inhibition by 5 μM compd. (%)” value is reported as 25.0%. Turning to `CS(=O)(=O)N1CCCC(CCn2c(Sc3cc4c(cc3Br)OCCO4)nc3c(N)ncnc32)C1` (stereo not shown) [compound 12, 8-[(7-Bromo-2,3-dihydro-1,4-benzodioxin-6-yl)thio]-9-{2-[1-(methylsulfonyl)piperidin-3-yl]ethyl}-9H-purin-6-amine], the IC50 came to 65 nM.

Take `N#Cc1cc2c(cc1Sc1nc3c(N)ncnc3n1CCC1CCN(C(=O)CO)CC1)OCO2` [compound 97, 6-({6-Amino-9-[2-(1-glycoloylpiperidin-4-yl)ethyl]-9H-purin-8-yl}thio)-1,3-benzodioxole-5-carbonitrile]: the IC50 came to 350 nM. Take `C[C@@H](NC(=O)[C@@H](C)OC(=O)C(C)(C)C)C(=O)N1CCC(Cn2c(Sc3cc4c(cc3Br)OCCO4)nc3c(N)ncnc32)CC1` [compound 127, (1R)-2-({(1R)-2-[4-({6-amino-8-[(7-bromo-2,3-dihydro-1,4-benzodioxin-6-yl)thio]-9H-purin-9-yl}methyl)piperidin-1-yl]-1-methyl-2-oxoethyl}amino)-1-methyl-2-oxoethyl pivalate]: the IC50 is greater than 5000 nM. On to `C[C@H](O)C(=O)N1CCC(CCn2c(Sc3cc4c(cc3Br)CCO4)nc3c(N)ncnc32)CC1` [Example Compound 173, (2S)-1-[4-(2-{6-Amino-8-[(5-bromo-2,3-dihydro-1-benzofuran-6-yl)thio]-9H-purin-9-yl}ethyl)piperidin-1-yl]-1-oxopropan-2-ol], for which the IC50 amounted to 35 nM. With `CS(=O)(=O)NCC(=O)N1CCC(CCn2c(Sc3cc4c(cc3Br)OCO4)nc3c(N)ncnc32)CC1` [Example Compound 158, N-{2-[4-(2-{6-Amino-8-[(6-bromo-1,3-benzodioxol-5-yl)thio]-9H-purin-9-yl}ethyl)piperidin-1-yl]-2-oxoethyl}methanesulfonamide], the IC50 is 360 nM. Regarding `CC(=O)NCC(=O)N1CCC(CCn2c(Sc3cc4c(cc3Br)OCCO4)nc3c(N)ncnc32)CC1` [Example Compound 159, N-{2-[4-(2-{6-Amino-8-[(7-bromo-2,3-dihydro-1,4-benzodioxin-6-yl)thio]-9H-purin-9-yl}ethyl)piperidin-1-yl]-2-oxoethyl}acetamide], the IC50 is 150 nM.

Consider `CN(C)C(CCn1cnc(N)c2nc(Sc3cc4c(cc3Br)OCCO4)nc1-2)C1CC1` (stereo not shown) [compound 143, 8-[(7-bromo-2,3-dihydro-1,4-benzodioxin-6-yl)thio]-3-[3-cyclopropyl-3-(dimethylamino)propyl]-3H-purin-6-amine], for which the “GM displacement from purified Hsp90 measured by FP Inhibition by 5 μM compd. (%)” value was 27.0%. Consider `N#CCCN1CCC(CCn2cnc(N)c3nc(Sc4cc5c(cc4Br)OCO5)nc2-3)CC1` [compound 32], for which the “GM displacement from purified Hsp90 measured by FP Inhibition by 5 μM compd. (%)” value stood at 9.0%. The same measure, in the same setting: with `COc1ccc(Br)c(Sc2nc3c(N)ncn(CCC4CCN(C(=O)CO)CC4)c-3n2)c1` [compound 94, 2-[4-(2-{6-Amino-8-[(2-bromo-5-methoxyphenyl)thio]-3H-purin-3-yl}ethyl)piperidin-1-yl]-2-oxoethanol] the figure was 10.0%. Consider `CN(C)C(CCn1c(Sc2cc3c(cc2Br)OCCO3)nc2c(N)ncnc21)C1CC1` (stereo not shown) [compound 142, 8-[(7-Bromo-2,3-dihydro-1,4-benzodioxin-6-yl)thio]-9-[3-cyclopropyl-3-(dimethylamino)propyl]-9H-purin-6-amine], for which the IC50 is 205 nM.

On to `Nc1ncnc2c1nc(Sc1cc3c(cc1Br)OCO3)n2CCC1CCNCC1` [Example Compound 147, 8-[(6-Bromo-1,3-benzodioxol-5-yl)thio]-9-(2-piperidin-4-ylethyl)-9H-purin-6-amine], for which the IC50 was 470 nM. Regarding `CC(C)(C)OC(=O)N1CCC(CCn2c(Sc3cc4c(cc3Br)CCO4)nc3c(N)ncnc32)CC1` [Example Compound 172, tert-Butyl 4-(2-{6-amino-8-[(5-bromo-2,3-dihydro-1-benzofuran-6-yl)thio]-9H-purin-9-yl}ethyl)piperidine-1-carboxylate], the IC50 amounted to 300 nM.
